# Reference: US6541490B1, “Bipyridine manganese complexes” (Eukarion, Inc., priority 1998, dated 2003)
# What was measured:
# Format in all cases: biochemical
# [1] = Catalase (CAT) assay: removal of hydrogen peroxide, HRP/ABTS read-out; conditions: amount of hydrogen peroxide removed per minute, per mmol of compound; 0.05M Tris HCl pH 7.4, 25° C., 60 mins
# Text: This method measures catalase activity as the ability to remove hydrogen peroxide from solution in the absence of hydrogen donors over one hour. After this time any remaining peroxide was removed by introduction to the mixture of high concentrations of horseradish peroxidase and the hydrogen donor 2,2′-azino-di-[3-ethyl-benzothiazoline-(6)-sulphonic acid (ABTS). This rapid reaction produces peroxide-concentration-dependant product with a maximal absorbance at 405 nm.
# (§1) The assays for compound antioxidant activity were carried out in 96-well microtitre plates using a DIAS modular assay robot instrument (Dynatech Ltd.) Compounds were solublised in DMF at 10 mM. DMF concentrations in the assay never exceeded 1%, were tolerated and were controlled for in assay plates.
# Hydrogen peroxide (Sigma H1009) 100 mM was incubated with various concentrations of compound in 0.05M Tris HCI pH 7.4 at 25° C. for 60 mins. […] Plates were then read for absorbance at 405 nm. A standard curve for absorbance against known hydrogen peroxide concentration was constructed. Absorbance data for wells containing compound were interpolated against this curve using the software tools Excel (Microsoft Corp.) and Xlfit (ID Business Solutions). […]
# The catalase assay procedure described above provides certain advantages over previously described assays. […] The oxidation of ABTS results in a colour change which can be measured. […]
# [2] = Superoxide dismutase (SOD) assay: xanthene oxidase/hypoxanthene, XTT reduction; conditions: SOD activity from IC50 of XTT reduction (one International Unit), normalised; 0.05M Tris/HCl pH 7.4, 25° C.
# Method: This method is adapted from what has become the standard method for the measurement of SOD activity (McCord J. M., Fridovich, I., J. Biol. Chem. 244, 6049-6055, 1969). Briefly, a steady-state production of superoxide anion was maintained by the action of xanthene oxidase (XO) on hypoxanthene (HX) at physiological pH. Presence of the anion was measured by the reduction of XTT (3′-{1-(phenylamino)-carbonyl]-3,4-tetrazolium]-bis(4-methoxy-6-nitro)benzsulphonic acid to a water-soluble product with an absorbance maximum at ˜470 nm. Hypoxanthene concentrations were titrated so as to give a steady-state rate of XTT reduction of 0.025 Optical Density Units (OD) per minute at 25° C.
# as §1
# Xanthene oxidase (Sigma X1875) 0.01 U/ml and XTT (Sigma X4251), 0.5 mM and hypoxanthene (Sigma H9377), typically at […], were incubated in the presence of various doses of compounds at 25° C. in 0.05M Tris/HCI pH 7.4. Rates of XTT reduction were measured over 5 minutes at 490 nm. Dose-response curves were constructed for inhibition by the compound of control rates of XTT reduction. […]
# [3] = Peroxidase (POD) assay: hydrogen peroxide removal with hydrogen donor ABTS; conditions: ABTS 3 mM, 0.05M Tris HCl pH 7.4, 25° C., 2 minutes, interpolated against horseradish peroxidase standard curve
# Method: This method measures the ability of the compounds to remove hydrogen peroxide in the presence of the hydrogen donor 2,2′-azino-di-[3-ethyl-benzothiazoline-(6)-sulphonic acid (ABTS) (Galati, H., J. Clin. Chem. Clin. Biochem. (1979) 17, 1-7).
# as §1
# ABTS (Sigma A-1888) 3 mM was incubated with various concentrations of compound in 0.05M Tris HCI pH 7.4 at 25° C. A range of standard concentrations of horseradish peroxidase (Sigma P-6140) were included on each microtitre plate. Hydrogen peroxide (Sigma H1009) 100 mM was added and the plate incubated at 25° C. for 2 minutes. Absorbance at 405 nm was measured and the rates of ABTS […] calculated. A standard curve was constructed using data from wells containing known concentrations of peroxidase. Data for wells containing compound were interpolated against this curve using the software tools Excel (Microsoft Corp.) and Xlfit (ID Business Solutions). Estimations of peroxidase activity were given as International Units of peroxidase activity/mmol compound.
structure (smiles),measurement,setting,value
"CCCCCCc1cccc2c1[O][Mn]([O]C(C)=O)[O]c1c(CCCCCC)cccc1-c1cccc(n1)-c1cccc-2n1 [Example 18, 6,6′-bis(3-Hexyl-2-hydroxyphenyl)-2,2′-bipyridine-manganese(III)acetate]",CAT,[1],0.0083
same,SOD,[2],41.43 U/mmol compound
same,POD,[3],209.92 International Units of peroxidase activity/mmol compound
